Laboratory results taken from EP0923530B1, “INHIBITION OF MATRIX METALLOPROTEASES BY SUBSTITUTED BIARYL OXOBUTYRIC ACIDS” (Bayer Corporation, priority 1996, dated 1997).

Columns and labels:
[1] = molecular target: T1, MMP-3 (Homo sapiens, UniProt P08254); test: P218 quenched fluorescence assay (MMP Microfluorometric Profiling Assay), MMP-3; type: biochemical; conditions: 6 µM P218 substrate, 25 min at 37°C, pH 6.5; read-out: MMP-3 Fluorogenic IC50
T1 construct: made in house; host or cells: CHO cells
T1 sequence (P08254 100-477): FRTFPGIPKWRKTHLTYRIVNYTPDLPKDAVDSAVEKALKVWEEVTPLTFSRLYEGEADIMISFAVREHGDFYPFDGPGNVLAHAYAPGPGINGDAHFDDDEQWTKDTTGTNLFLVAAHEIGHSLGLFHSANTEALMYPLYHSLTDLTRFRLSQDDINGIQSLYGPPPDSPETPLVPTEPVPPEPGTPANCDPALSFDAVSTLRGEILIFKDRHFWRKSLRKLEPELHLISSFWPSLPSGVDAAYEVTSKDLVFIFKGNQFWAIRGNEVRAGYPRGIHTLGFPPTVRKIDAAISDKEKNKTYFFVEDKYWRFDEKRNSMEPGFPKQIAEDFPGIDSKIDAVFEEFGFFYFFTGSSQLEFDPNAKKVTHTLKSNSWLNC
Excerpt: (§1) The P218 quenched fluorescence assay (Microfluorometric Profiling Assay) is a modification of that originally described by Knight, et al.. FEBS Lett. 296, 263 (1992) for a related substance and a variety of matrix metalloproteinases (MMPs) in cuvettes. The assay was run with each invention compound and the three MMPs, MMP-3, MMP-9 and MMP-2, analyzed in parallel, adapted as follows for a 96-well microtiter plate and a Hamilton AT® workstation. P218 Fluorogenic Substrate: P218 is a synthetic substrate containing a 4-acetyl-7-methoxycoumarin ( MCA) group in the N-terminal position and a 3-[2, 4-dinitrophenyl]-L-2,3-diaminopropionyl (DPA) group internally. This is a modification of a peptide reported by Knight (1992) that was used as a substrate for matrix metalloproteinases. Once the P218 peptide is cleaved (putative clip site at the Ala-Leu bond), the fluorescence of the MCA group can be detected on a fluorometer with excitation at 328 nm and emission at 393 nm. P218 is currently being produced BACHEM exclusively for Bayer. P218 has the structure: [formula]
Recombinant Human CHO Pro-MMP-3: Human CHO pro-stromelysin-257 (pro-MMP-3) was expressed and purified as described by Housley, et al.. J. Biol. Chem. 268, 4481 (1993).
Activation of Pro-MMP-3: Pro-MMP-3 at 1.72 µM (100 µg/mL) in 5 mM Tris at pH 7.5, 5 mM CaCl2, 25 mM NaCl, and 0.005% Brij-35 (MMP-3 activation buffer) was activated by incubation with TPCK (N-tosyl-(L)-phenylalanine chloromethyl ketone) trypsin (1:100 w/w to pro-MMP-3) at 25 °C for 30 min. The reaction was stopped by addition of soybean trypsin inhibitor (SBTI; 5:1 w/w to trypsin concentration). This activation protocol results in the formation of 45 kDa active MMP-3, which still contains the C-terminal portion of the enzyme.
(§2) Hamiltion Microlab AT Plus: The MMP-Profiling Assay is performed robotically on a Hamilton MicroLab AT Plus®. […]
(§3) Millipore Cytofluor II. Following incubation, the plate was read on a Cytofluor II fluorometric plate reader with excitation at 340 nm and emission at 395 nm with the gain set at 80. […]

[2] = molecular target: T2, MMP-9 (Homo sapiens, UniProt P14780); test: P218 quenched fluorescence assay (MMP Microfluorometric Profiling Assay), MMP-9; type: biochemical; conditions: 6 µM P218 substrate, 25 min at 37°C, pH 6.5; read-out: MMP-9 Fluorogenic IC50
T2 construct: made in house
T2 sequence (P14780 107-707 limits assumed): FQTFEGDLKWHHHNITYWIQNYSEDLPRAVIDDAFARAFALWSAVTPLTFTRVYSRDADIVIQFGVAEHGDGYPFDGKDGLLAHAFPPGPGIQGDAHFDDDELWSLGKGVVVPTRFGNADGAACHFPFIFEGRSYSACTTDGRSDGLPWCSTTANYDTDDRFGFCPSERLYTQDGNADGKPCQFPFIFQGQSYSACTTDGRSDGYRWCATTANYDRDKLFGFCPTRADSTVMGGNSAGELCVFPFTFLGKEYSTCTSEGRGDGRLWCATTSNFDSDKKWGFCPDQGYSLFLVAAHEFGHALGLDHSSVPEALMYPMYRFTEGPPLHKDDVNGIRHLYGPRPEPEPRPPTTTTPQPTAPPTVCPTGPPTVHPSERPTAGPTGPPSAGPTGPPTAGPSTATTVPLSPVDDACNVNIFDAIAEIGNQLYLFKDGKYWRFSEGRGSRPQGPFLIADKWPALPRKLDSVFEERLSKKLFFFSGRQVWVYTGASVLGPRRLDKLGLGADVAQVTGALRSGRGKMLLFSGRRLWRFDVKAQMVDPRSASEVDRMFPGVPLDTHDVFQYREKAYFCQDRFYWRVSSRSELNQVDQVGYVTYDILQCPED
Excerpt: as §1
Recombinant Human Pro-MMP-9: Human pro-gelatinase B (pro-MMP-9) derived from U937 cDNA as described by Wilhelm, et al. J. Biol. Chem. 264, 17213 (1989) was expressed as the full-length form using a baculovirus protein expression system. The pro-enzyme was purified using methods previously described by Hibbs, et al. J. Biol. Chem. 260, 2493 (1984).
Activation of Pro-MMP-9: […] 20 µg/mL in 50 mM Tris at pH 7.4, 10mM CaCl2, 150 mM NaCl, and 0.005% Brij-35 (MMP-9 activation buffer) was activated by incubation with 0.5 mM p-aminophenylmercuric acetate (APMA) for 3.5 h at 37°C. The enzyme was dialyzed against the same buffer to revmove the APMA.
as §2, §3

[3] = molecular target: MMP-2 (Homo sapiens, UniProt P08253); test: biochemical
Chain of MMP-2 (P08253 110-660): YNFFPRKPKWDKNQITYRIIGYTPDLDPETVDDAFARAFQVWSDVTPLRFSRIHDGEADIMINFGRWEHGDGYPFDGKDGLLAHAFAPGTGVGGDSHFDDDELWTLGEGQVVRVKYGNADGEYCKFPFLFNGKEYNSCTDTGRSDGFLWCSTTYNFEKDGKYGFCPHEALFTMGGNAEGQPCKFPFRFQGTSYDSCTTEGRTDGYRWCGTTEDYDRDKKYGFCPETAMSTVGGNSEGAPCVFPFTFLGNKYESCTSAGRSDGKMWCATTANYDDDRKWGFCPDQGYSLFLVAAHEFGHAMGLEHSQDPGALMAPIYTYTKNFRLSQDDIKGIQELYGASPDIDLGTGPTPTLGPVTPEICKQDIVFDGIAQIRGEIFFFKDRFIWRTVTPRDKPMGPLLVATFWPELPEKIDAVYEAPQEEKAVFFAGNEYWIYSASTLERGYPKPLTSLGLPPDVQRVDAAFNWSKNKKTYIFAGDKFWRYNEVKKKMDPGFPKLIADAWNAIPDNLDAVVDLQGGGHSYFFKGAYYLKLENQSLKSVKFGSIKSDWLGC

Row | Compound | IC50 [1] [nM] | IC50 [2] [nM] | IC50 [3] [nM]
1 | O=C(CC(CCn1nnc2ccccc2c1=O)C(=O)O)c1ccc(-c2ccc(Cl)cc2)cc1 (stereo not drawn) [Example 19, α-[2-(4'-chloro[1,1'-biphenyl]-4-yl)-2-oxoethyl]-4-oxo-1,2,3,-Benzotriazine-3(4H)-butanoic acid] | 47 | 4.7 | 2.4
2 | O=C(c1ccc(-c2ccc(Cl)cc2)cc1)C1CCC(Cn2nnc3ccccc3c2=O)C1C(=O)O (stereo not drawn) [Example 1, 2-[(4'-chloro[1,1'-biphenyl]-4-yl)carbonyl]-5-[(4-oxo-1,2,3-benzotriazin-3(4H)-yl)methyl]-cyclopentanecarboxylic acid] | 1.7 | 0.34 | 0.39
3 | CC1=NCC(=O)N(CCC(CC(=O)c2ccc(-c3ccc(Cl)cc3)cc2)C(=O)O)c2ccccc21 (stereo not drawn) [Example 22, α-[2-(4'-chloro[1,1'-biphenyl]-4-yl)-2-oxoethyl]-2,3-dihydro-5-methyl-2-oxo-1H-1,4-benzodiazepine-1-butanoic acid] | 140 | 120 | 24
